In patent EP4342530A1, “SORTILIN MODULATORS” (Insusense ApS, priority 2022, dated 2024):
Like-named read-outs stand apart in the source and are kept apart here.

Key:
[1] = Plasma protein binding by rapid equilibrium dialysis, dog plasma; format: in vitro ADME
Method: Plasma protein binding and brain homogenate binding for study compounds in mouse, dog, and rat by rapid equilibrium dialysis
In practice, unbound fractions in plasma and brain tissue were assessed using rapid equilibrium dialysis in vitro. Separately a pharmacokinetic study was run in vivo whereby a dose of the compound of interest was given at T=0 hours and at subsequent timepoints (eg 0.5, 1 and 4 hours) plasma and separately brain samples were analysed for total concentration of the compound of interest. These total concentrations could then be adjusted with the unbound fraction to give the unbound concentrations in the plasma and brain.
The test compounds were incubated in plasma and brain homogenate from the relevant species at 37 °C in RED device with inserts (8K MWCO, Thermo scientific) for 4 hours at 5 µM in triplicates. 350 µL of 150 mM phosphate buffered saline (PBS, pH 7.4) was used as the receiver side solutions. […] After 10-minute centrifugation at 13 200 rpm, the sample supernatants were analysed with an LC-MS/MS, to obtain the unbound fraction of the test compound (Fub). The unbound fraction was calculated from the peak area ratios obtained for each matrix: Fub = CPBS /Cplasma; [formula] where CPBS and Cplasma are the analyte concentrations in PBS (receiver) and plasma (donor), respectively. […]

[2] = Kpuu determination in the dog (plasma and CSF time course after oral capsule); format: in vivo, male beagle dog
Method: Example 3 was loaded as a solid, Batch No. C2210502, into enteric coated capsule (0#). Fasted male beagle dog was dosed with pentagastrin (0.25 mg/mL and 0.024 mL/kg) at 6 µg/kg by intramuscular (IM) injection at approximately 30 minutes prior to administration of test compound. Capsule containing 20 mg/kg of Example 3 were administered orally and plasma and CSF samples were taken pre-dose, 0.5, 1, 2, 4, 8 12 and 24 hours post dosing and analysed for concentration of Example 3 in analogous fashion to the study above.
Kpuu = AUC0−infcsf/(AUC0−infplasma×(%Fuplasma/100)) [formula] Kpuu = 6414/(23816×(55,5/100)) = 6414/13218 = 0.49 [formula]

[3] = male, beagle, CSF, 20 mg/kg oral capsule, read-out: CSF concentration
[4] = male, beagle, plasma, 20 mg/kg oral capsule, read-out: Plasma concentration

%Fuplasma ([1]; dog plasma, as used for the Kpuu calculation): 55%
fraction unbound at 4 h, 5 µM ([1]; pH 7.4, Dog plasma, 5 µM, 4 hours, 37 °C, read-out: Unbound (Fu, %)): 0.555
CSF concentration ([2]; 20 mg/kg oral capsule, 0,5 h): BQL
Plasma concentration ([2]; 20 mg/kg oral capsule, 0,5 h): 1,04 ng/mL
CSF concentration ([2]; 20 mg/kg oral capsule, 1 h): BQL
Plasma concentration ([2]; 20 mg/kg oral capsule, 1 h): 3,20 ng/mL
CSF concentration ([2]; 20 mg/kg oral capsule, 2 h): 13,7 ng/mL
CSF concentration ([2]; 20 mg/kg oral capsule, 24 h): 27,7 ng/mL
Plasma concentration ([2]; 20 mg/kg oral capsule, 24 h): 87,1 ng/mL
AUC(0-inf) ([2]; male, beagle, CSF, 20 mg/kg oral capsule): 6410 ng·h/mL
concentration at 4 h [2, 3]: 745 ng/mL
concentration at 8 h [2, 3]: 698 ng/mL
concentration at 12 h [2, 3]: 196 ng/mL
AUC(0-inf) ([2]; male, beagle, Plasma, 20 mg/kg oral capsule): 23800 ng·h/mL
concentration at 2 h ([2]; male, beagle, plasma, 20 mg/kg oral capsule, 2 h): 370 ng/mL
concentration at 4 h [2, 4]: 5350 ng/mL
concentration at 8 h [2, 4]: 1400 ng/mL
concentration at 12 h [2, 4]: 390 ng/mL
SMILES: CC(C)(C)CC[C@H](NCc1ccc2c(c1)COCC2)C(=O)O [Example 3, (S)-2-((isochroman-7-ylmethyl)amino)-5,5-dimethylhexanoic acid]
